Reference: patent publication US20260325500A1, “METHODS AND COMPOSITIONS FOR TREATING ACUTE STRESS DISORDER” (BioXcel Therapeutics, Inc., priority 2022, published 2026)
Structures can show the parent of a compound that is named as a salt. Marks after values point to notes of the source that are not given here.

Legend:
[1] = tested on: Yohimbine-induced noradrenergic hyperarousal in Wistar rats; assay: Elevated plus maze, yohimbine-induced noradrenergic hyperarousal, dose response (Example 3); assay type: in vivo; conditions: 30 min
Excerpt: Background: Yohimbine is an alpha 2-adrenergic receptor antagonist reported to trigger panic attacks in healthy volunteers and to exacerbate symptoms in patients with panic disorder (Charney et al., 1992 Acta Psychiatr Scand., Vol. 86 (4): 273-282). Peripheral administration of Yohimbine causes noradrenergic mediated hyperarousal in rats as assessed by the EPM paradigm.
Rationale: The drug yohimbine is a natural product used to test a specific pathway, noradrenergic-mediated hyper-arousal. It is well established that yohimbine is an alpha2-adrenergic receptor antagonist and activates the locus coeruleus (LC) and increases noradrenergic signaling (the opposite of alpha2-adrenergic agonists like dexmedetomidine and clonidine). Increased LC activity and noradrenergic signaling makes animals anxious and agitated which can be measured by using the elevated plus maze. In the elevated plus maze, rodents were in the closed arms and explored the open arms depending on their anxiety and agitation (rats and mice normally explore their environments extensively when calm). […] This behavior is correlated to increased level of anxiety caused by noradrenergic mediated hyperarousal.
(§1) Animal groups: Rats were distributed in 9 different experimental groups with 12 […] per group as illustrated in Table 6. Each experimental group was also coded so that the experimenter became unaware of the true experimental group at the time EPM trial.
Acclimatization: Male Wistar rats (Janvier; Le Genest St Isle-France) were used for the study. They were purchased at a body weight of 150 g and reached a body weight of about 220 g at the time of use. They were group-housed (3-4 rats per cage) and maintained in a room with controlled temperature (21-22° C.) and a reversed light-dark cycle (12 h/12 h; lights on: 17:30-05:30; lights off: 05:30-17:30).
Drug preparation: All compounds/drugs were prepared in normal saline (0.9% NaCl).
Yohimbine was prepared at a solution of 2.5 mg/mL which when injected i.p. at a dosage volume of 1 mL/kg results in a dose of 2.5 mg/kg. Diazepam was prepared at a solution of 1 mg/mL which when injected i.p. at a dosage volume of 1 mL/kg results in a dose of 1 mg/kg. Latrepirdine dihydrochloride hydrate was prepared at a solution of 7.5, 2.5, 0.75 and 0.25 mg/mL which when injected i.m. at a volume of 100 μL for a rat of 250 g results in doses of 3; 1; 0.3 and 0.1 mg/kg; respectively. Latrepirdine dihydrochloride hydrate was also prepared at […] which when administrated i.p. at a dosage volume of 1 mL/kg results in a dose of 3 mg/kg.
Experimental procedure: The rats were randomly assigned to one of the different experimental groups. Each animal was identified by its group name, cage number, series (day) of experiment, and a number (from 1 to 9) written with permanent ink on its tail. They were handled by an experimenter for about 3 min each day during 1 week prior to the day of EPM trial. The apparatus was a PVC maze covered with Plexiglas and subdivided into four equal exploratory arms (40×10 cm), which were all interconnected by a small platform (10×10 cm). The apparatus was placed 65 cm above the floor. Two arms were opened, and two others were closed with wall (high: 10 cm). After compound administration, rat was placed on the platform opposite a closed arm. The number of entries and the time spent in each arm were recorded during a 5 min period. The animal was considered as entered in an arm when it placed its four paws in the arm. The apparatus was cleaned between each animal using alcohol (70%). Urine and feces were removed from the maze. During the trials, animal handling and the visibility of the operator were minimized as much as possible.
Statistical analysis: Analysis of variance (ANOVA) was performed on the result data. Fisher's PLSD was used for pairwise comparisons and p value≤0.05 were considered significant. […]

[2] = tested on: CCK-4 induced panic anxiety in rats; assay: Elevated plus maze, CCK-4 induced panic anxiety (Example 8); assay type: in vivo, Wistar rats; conditions: diazepam 1 mg/kg; CCK4 0.2 mg/kg i.p.
Excerpt: Rationale: In the past two decades panic induction with cholecystokinin-tetrapeptide (CCK-4) as an experimental model of human anxiety has become a focus of intensive research. CCK-4 is a synthetic analog of the endogenous neuropeptide cholecystokinin (CCK), which has been found in different brain regions. Particularly, high concentrations of CCK have been detected in regions that have been implicated in the mediation of panic attacks such as the cerebral cortex, amygdala, hippocampus, and brainstem nuclei. CCK-4 dose dependently induces panic attacks in healthy controls. Thus, CCK-4 has been postulated to fulfil the criteria for an ideal and valid panicogenic agent. […] Therefore, the CCK-4 challenge paradigm can serve as a useful tool to evaluate the anti-panic potential of novel anxiolytic compounds.
as §1, with “groups: Male Wistar” for “groups:”, “Rats were purchased at a body weight of 150 g and reached a body weight of about 220 g at the time of use. Animals” for “Rats”, “6” for “9”, “11.” for “6.”
Study drugs: All compounds/drugs were prepared in saline (0.9% NaCl).
CCK-4 was prepared at a solution of 0.2 mg/ml which when injected i.p. at a dosage volume of 1 ml/kg results in a dose of 0.2 mg/kg.
Diazepam was prepared at a solution of 1 mg/ml which when injected i.p. at a dosage volume of 1 ml/kg results in a dose of 1 mg/kg.
Latrepirdine was prepared at concentrations of 2.5, 7.5, 25 and 37.5 mg/ml which when injected i.m. at a volume of 100 μL for a rat of 250 g results in doses of 1, 3, 10 and 15 mg/kg respectively.
Study design and dosing: The rats were randomly assigned to one of the different experimental groups. Each animal was identified by its group name, cage number, series (day) of experiment, and a number (from 1 to 4) written with permanent ink on its tail. They were handled by an experimenter for about 3 min each day during 1 week prior to the day of EPM trial.
The apparatus is a PVC maze covered with Plexiglas and subdivided into four equal exploratory arms (40×10 cm), which are all interconnected by a small platform (10×10 cm). The apparatus is placed 65 cm above the floor. Two arms are opened, and two others are closed with wall (high: 10 cm).
After compound administration, rat is placed on the platform opposite a closed arm. The number of entries and the time spent in each arm are recorded during a 5 min period. The animal is considered as entered in an arm when it places its four paws in the arm.
Statistical analysis: Data was analyzed using One-Way ANOVA followed by multiple comparison with Dunnett's post-hoc test. All statistical analyses were performed using GraphPad Prism software package (Version 9) and p value below 0.05 was considered as significant.

[3] = tested on: rat forced swim test model (depressive-like behavior); assay: Forced swim test in dark phase (Example 4); assay type: in vivo, Sprague Dawley rats; conditions: 30 mg/kg, p.o.; versus vehicle saline, 5 minutes observation
Excerpt: Animal groups: Male Sprague Dawley (SD) rats (8-10 weeks old) were grouped housed 2 per cage in standard animal cages with facilities for pelleted food and drinking water in polycarbonate bottle with stainless steel sipper tubes. During the experimental period, animals were housed in a single experimental room. Rats were distributed in 7 different experimental groups with 9-12 rats per group as illustrated in Table 8. Animals were distributed to different groups based on body weight data. Each experimental group was also coded so that the experimenter became unaware of the true experimental group at the time FST trial.
Animals were housed in an environment-controlled room at 22±3° C. and relative humidity of 30 to 70 percent. During the study, 12/12 light/dark cycles were maintained. Lights of the acclimatization area were switched off at 06:00 PM. All experiments were carried out at ambient temperature under dark phase of lighting (between 06:00 PM to 06:00 AM). Adequate fresh air supply of 12-15 air changes/hour was maintained in the experimental room. The maximum and minimum temperature and relative humidity in the experimental rooms was recorded once daily. The relative humidity in the experimental room was calculated daily from dry and wet bulb temperature recordings.
Swim 1 was carried out between 18:30 to 21:30.
Swim 2 was carried out between 19:30 to 21:30. Animals were administered test compounds from 18:30 onwards in staggered manner 60 minutes before FST 2.
Forced swim test was carried out in dark phase
On Day 1, animals were subjected to forced swim test training for 15 minutes (Swim 1) and on Day 2, Swim 2 was carried out post treatment.
On day 2 animals were dosed with respective treatment 60 min prior to performing FST.
Forced swim test (Swim 2) was scored manually with no video recording.
Forced swim test (FST), was used to study the depressive-like behavior in rodents. The test was carried out in transparent cylindrical glass containers measuring 46 cm in height and 20 cm in diameter.
There were 2 swim sessions, 24 h apart. The first session, Swim 1 was the pretest/training stage (15 min) and the second session, Swim 2, was the test stage (8 min).
In swim 2, first 1-minute data was excluded from analysis and rest 7 minutes data was considered. In 7 minutes, data, it was divided 5 minutes and 2 minute.
Twenty-four hours after the start of Swim 1, the test swim (Swim 2) was carried out.
Rat was placed in the water-filled cylinder for 8 min (Swim 2).
The duration of time spent immobile, swimming, and climbing was observed by an observer blind to the treatment group.
Immobility period: A rat was judged to be immobile when it remained floating in the water without struggling and was making only those movements necessary to keep its head above water.
Statistical analysis: One Way ANOVA, Dunnet's multiple comparison test was applied with respect to vehicle saline and Tukey's multiple comparison test was applied to compare the data in between the groups using GraphPad Prism version 9 software.

[4] = tested on: mouse behavior (SmartCube signature); assay: SmartCube system behavioral classification (Example 6); assay type: in vivo, Male C57/B16 mice; conditions: IP
Excerpt: Dexmedetomidine and latrepirdine have anti-psychotic effects, when tested in the SmartCube® system (Psychogenics, Inc., Paramus, NJ; See also U.S. Pat. No. 7,580,798 incorporated herein by reference in its entirety). This system uses features derived from mouse behavioral data to first, classify mice on compound versus vehicle. This measure indicates how well the system can differentiate between a mouse on compound versus a mouse on vehicle. Secondly, by comparing the features to a proprietary reference database of behavioral feature sets that are linked to classes of marketed drugs known to treat neuro-psychiatric symptoms SmartCube® assigns a signature to the behavior. Thus, the system can be used as a model to identify both the activity and the psychiatric effect of a compound by comparing the effects of the compounds against drugs with known validated effects.
By comparing the responses of animals to known drugs, the test drug can be categorized according to its function; for example, hallucinogen, anxiogenic, analgesic, cognitive enhancer, psychostimulant, mood stabilizer, high dose anti-psychotic, anti-psychotic, sedative/hypnotic, anxiolytic, high dose antidepressant, antidepressant.
Once all features are extracted from the raw data through an automated pipeline, proprietary bioinformatics algorithms are used to decorrelate groups of features and find the combination of values that best separate different groups of interest. For each compound, at each dose, they system provides a probability that the drug is active and breaks down such putative activity into the different classes of interest.
SmartCube reference data used herein include anti-psychotics and anti-depressants tested at several dose ranges. “Anti-psychotic” versus “high dose anti-psychotic” as indicated in the legend, reflects the notion that anti-psychotics reference data is dose dependent. Anti-psychotics, when administered at higher doses, can engage additional receptor systems, and thus affect mouse behavior differently. The same applies for different doses of anti-depressants.
Animals: Male C57/B16 mice (N=12 per group) from Taconic Laboratories were used. Upon receipt, mice were group-housed in OPTI mouse ventilated cages with 4 mice per cage. Mice were acclimated to the colony room for at least one week prior to test and subsequently tested at approximately 8-9 weeks of age. All animals were examined, handled, and weighed prior to initiation of the study to assure adequate health and suitability and to minimize non-specific stress associated with manipulation.
All compounds tested were formulated in NP3 (vehicle solution): 5% Pharmasolve; 30% P3 (1:1:1 PEG200: PEG400: propylene glycol); 65% saline; pH is 5.1-6.
Test groups were: • Vehicle: NP3 • Dexmedetomidine at 0.005 and 0.010 mg/kg • Latrepirdine at 1 and 10 mg/kg • Dexmedetomidine and latrepirdine combinations (in mg/kg): 0.005/1.0; 0.005/10; 0.010/1.0; 0.010/10
Test compounds were injected intraperitoneally (IP) for 15 min before animals were placed in SmartCube for assessment.
Antipsychotic: SmartCube classifies the mouse behavior with test compound as similar to treatment with marketed anti-psychotics at therapeutically relevant doses.
High Dose Antipsychotic: SmartCube classifies the mouse behavior on test compound as similar to treatment with marketed anti-psychotics at doses that are considered as high therapeutically. High doses of anti-psychotics often cause sedation.
The results for the class analyses are presented as standardized bar charts with percentages that sum to 100 for each dose. The percentage indicates the probability the classifier can differentiate between the vehicle group and test group. The pattern indicates what class signature was assigned.

[5] = diazepam 1 mg/kg, i.p., yohimbine hydrochloride 2.5 mg/kg i.p.

With `CN1C(=O)CN=C(c2ccccc2)c2cc(Cl)ccc21` [Diazepam] the “Percent increase as referred to the Vehicle level, Entries” value [1, 5] was 294%, the “Percent increase as referred to the Vehicle level, Time” value [1, 5] was 642% and the “Entries, % increase as compared to CCK-4/Vehicle” value [2] was “(400.00) **** %”. For the same molecule, the “Entries, Mean ± SEM” value [2] was 9.5±0.5 n, the “Time, % increase as compared to CCK-4/Vehicle” value [2] was “(652.27) **** %” and the “Time, Mean ± SEM” value [2] was 99.3 ± 3.8 s.

`CNCCCN1c2ccccc2CCc2ccccc21` [desipramine hydrochloride] was tested, and the climbing time [3] was “increase”, the immobility time [3] was “significant decrease” and the swimming time [3] was “failed to show any significant effect”.

In the case of `Cc1cccc([C@H](C)c2cnc[nH]2)c1C` [dexmedetomidine, (+) 4-(S)-[1-(2,3-dimethylphenyl)ethyl]-1H-imidazole], the SmartCube signature ([4]; 0.005 and 0.010 mg/kg) is reported as “antipsychotic signature”, the SmartCube total activity ([4]; dexmedetomidine 0.005 mg/kg) is reported as 9% and the SmartCube total activity ([4]; dexmedetomidine 0.010 mg/kg) is reported as 40%.

For `COC(=O)[C@@H]1[C@H]2C[C@H]3c4[nH]c5ccccc5c4CCN3C[C@@H]2CC[C@@H]1O` [yohimbine], the “number of visits to and time spent into the open arms versus vehicle-treated saline rats” value ([1]; yohimbine 2.5 mg/kg i.p.) was “marked significant decrease”.
